# Data: ChEMBL document CHEMBL2331464, “Diarylheptanoids and flavonoids from viscum album inhibit LPS-stimulated production of pro-inflammatory cytokines in bone marrow-derived dendritic cells” (J Nat Prod, 2013)
# Experiments:
# Conditions in all cases: bmdc
# [1] = Cytotoxicity against C57BL/6 mouse BMDCs at 2 to 50 microM by MTT assay
# IL-6 (mouse) = assay: Antiinflammatory activity in C57BL/6 mouse BMDCs assessed as inhibition of LPS-stimulated IL-6 production treated 1 hr before LPS challenge measured 16 hrs post stimulation by ELISA
# [2] = Antiinflammatory activity in C57BL/6 mouse BMDCs assessed as inhibition of LPS-stimulated IL-12p40 production treated 1 hr before LPS challenge measured 16 hrs post stimulation by ELISA
# [3] = Antiinflammatory activity in C57BL/6 mouse BMDCs assessed as inhibition of LPS-stimulated TNF-alpha production treated 1 hr before LPS challenge measured 16 hrs post stimulation by ELISA
SMILES,IC50 (IL-6 (mouse)),IC50 [2],IC50 [3],Activity [1]
COc1cc([C@H]2OC[C@H]3[C@@H]2CO[C@@H]3c2cc(OC)c(O)c(OC)c2)ccc1O,20.9 µM,2 µM,22.3 µM,Non-toxic
CO[C@H](/C=C/c1ccc(O)cc1)C[C@@H](O)CCc1ccc(O)cc1,> 50 µM,11.8 µM,> 50 µM,Non-toxic
C=C(C)[C@@H]1CC[C@]2(C(=O)O)CC[C@]3(C)[C@H](CC[C@@H]4[C@@]5(C)CC[C@H](O)C(C)(C)[C@@H]5CC[C@]43C)[C@@H]12 [BETULINIC ACID],21.3 µM,3.61 µM,19.4 µM,Non-toxic
COc1cc([C@H]2OC[C@H]3[C@@H]2CO[C@@H]3c2ccc(O)c(OC)c2)ccc1O [(+)-PINORESINOL],,,,Non-toxic
COc1cc([C@H]2c3c(cc(OC)c(O)c3OC)C[C@@H](CO)[C@@H]2CO[C@@H]2O[C@H](CO)[C@@H](O)[C@H](O)[C@H]2O)cc(OC)c1O,> 50 µM,> 50 µM,> 50 µM,Non-toxic
COc1cc(O)c2c(=O)c(O[C@H]3O[C@H](COC(=O)CC(C)(O)CC(=O)OC[C@H]4O[C@@H](Oc5c(OC)cc(/C=C/CO)cc5OC)[C@H](O)[C@@H](O)[C@@H]4O)[C@@H](O)[C@H](O)[C@H]3O)c(-c3ccc(O[C@@H]4O[C@H](CO)[C@@H](O)[C@H](O)[C@H]4O)c(OC)c3)oc2c1 (some centres undefined),> 50 µM,> 50 µM,> 50 µM,Non-toxic
C[S+]([O-])c1ccc(-c2nc(-c3ccc(F)cc3)c(-c3ccncc3)[nH]2)cc1 (centres undefined) [SB-203580],3.45 µM,5.21 µM,7.53 µM,
C/C(=C\CO)CCC[C@H](C)CCC[C@H](C)CCCC(C)C [TRANS-PHYTOL],2.02 µM,3.62 µM,1.22 µM,Non-toxic
COc1cc([C@@H]2OC[C@@H]3[C@H]2CO[C@H]3c2ccc(O)c(OC)c2)ccc1O [(+)-PINORESINOL],> 50 µM,28.6 µM,> 50 µM,
C=CC(C)(O)CC/C=C(\C)CCC=C(C)C (centres undefined) [NEROLIDOL],20.2 µM,7.57 µM,2.02 µM,Non-toxic
O=C(/C=C/c1ccc(O)cc1)C[C@@H](O)CCc1ccc(O)cc1,> 50 µM,> 50 µM,> 50 µM,Non-toxic
COc1cc(O)c2c(=O)c(O[C@H]3O[C@H](COC(=O)CC(C)(O)CC(=O)O)[C@@H](O)[C@H](O)[C@H]3O)c(-c3ccc(O[C@@H]4O[C@H](CO)[C@@H](O)[C@H](O)[C@H]4O)c(OC)c3)oc2c1 (some centres undefined),> 50 µM,> 50 µM,> 50 µM,Non-toxic
CO[C@@H](/C=C/c1ccc(O)cc1)C[C@@H](O)CCc1ccc(O)cc1,0.68 µM,0.09 µM,0.32 µM,Non-toxic
COc1cc(/C=C/CO)cc(OC)c1O[C@@H]1O[C@H](CO)[C@@H](O)[C@H](O)[C@H]1O [SYRINGIN],> 50 µM,> 50 µM,> 50 µM,Non-toxic
COc1cc([C@@H]2c3c(cc(OC)c(O)c3OC)C[C@H](CO)[C@H]2CO[C@@H]2O[C@H](CO)[C@@H](O)[C@H](O)[C@H]2O)cc(OC)c1O,> 50 µM,14.6 µM,> 50 µM,Non-toxic

# Second part, led by results:
IC50 (IL-6 (mouse)),IC50 [2],IC50 [3],SMILES,Activity [1]
> 50 µM,> 50 µM,> 50 µM,COc1cc([C@@H]2CC(=O)c3c(O)cc(O[C@@H]4O[C@H](CO)[C@@H](O)[C@H](O)[C@H]4O[C@@H]4OC[C@](O)(CO)[C@H]4O)cc3O2)ccc1O,Non-toxic
> 50 µM,> 50 µM,> 50 µM,COc1cc(O)c2c(c1)O[C@H](c1ccc(O[C@@H]3O[C@H](CO)[C@@H](O)[C@H](O)[C@H]3O[C@@H]3OC[C@](O)(CO)[C@H]3O)c(OC)c1)CC2=O,Non-toxic
> 50 µM,> 50 µM,> 50 µM,CC(=O)O[C@H]1CC[C@]2(C)[C@H]3CC=C4[C@@H]5CC(C)(C)CC[C@]5(C)CC[C@@]4(C)[C@]3(C)CC[C@H]2C1(C)C [beta-AMYRIN ACETATE],Non-toxic
> 50 µM,> 50 µM,> 50 µM,COc1cc(O)c2c(c1)O[C@H](c1ccc(O[C@@H]3O[C@H](CO)[C@@H](O)[C@H](O)[C@H]3O[C@@H]3OC[C@](O)(CO[C@@H]4OC[C@](O)(CO)[C@H]4O)[C@H]3O)c(OC)c1)CC2=O,Non-toxic
> 50 µM,13.5 µM,> 50 µM,CC1(C)CC[C@]2(CO)CC[C@]3(C)C(=CC[C@@H]4[C@@]5(C)CC[C@H](O)C(C)(C)[C@@H]5CC[C@]43C)[C@@H]2C1 [ERYTHRODIOL],Non-toxic
> 50 µM,> 50 µM,> 50 µM,COc1cc([C@@H]2CC(=O)c3c(O)cc(O[C@@H]4O[C@H](CO)[C@@H](O)[C@H](O)[C@H]4O[C@@H]4OC[C@](O)(CO[C@@H]5OC[C@](O)(CO)[C@H]5O)[C@H]4O)cc3O2)ccc1O [VISCUMNEOSIDE V],Non-toxic
> 50 µM,76.8 µM,> 50 µM,COc1cc(-c2cc(=O)c3c(O)cc(O[C@@H]4O[C@H](CO)[C@@H](O)[C@H](O)[C@H]4O[C@@H]4OC[C@](O)(CO)[C@@H]4O)cc3o2)ccc1O,Non-toxic
> 50 µM,> 50 µM,> 50 µM,COc1cc(/C=C/CO)cc(OC)c1O[C@@H]1O[C@H](CO)[C@@H](O)[C@H](O)[C@H]1O[C@@H]1OC[C@](O)(CO)[C@H]1O,Non-toxic
> 50 µM,> 50 µM,> 50 µM,COc1cc(O)c2c(=O)cc(-c3ccc(O[C@@H]4O[C@H](CO)[C@@H](O)[C@H](O)[C@H]4O[C@@H]4OC[C@](O)(CO)[C@H]4O)c(OC)c3)oc2c1,Non-toxic
8.96 µM,3.86 µM,1.01 µM,COc1cc(O)c2c(=O)c(OC)c(-c3ccc(O[C@@H]4O[C@H](CO)[C@@H](O)[C@H](O)[C@H]4O[C@@H]4OC[C@](O)(CO)[C@H]4O)c(OC)c3)oc2c1,Non-toxic
> 50 µM,> 50 µM,> 50 µM,CC1(C)CC[C@]2(C(=O)O)CC[C@]3(C)C(=CC[C@@H]4[C@@]5(C)CC[C@H](O)C(C)(C)[C@@H]5CC[C@]43C)[C@@H]2C1 [OLEANOLIC_ACID],Non-toxic
